PubChem BioAssay AID2060901 (Molecular Pharmacology Branch, DTP, NCI, 2025)
pIC50: −log10 of the molar value.

Tested on: 422866-222-R5-J1-PDC complex spheroids viability
Experiment: Anticancer human tumor 422866-222-R5-J1-PDC patient-derived pancreatic adenocarcinoma cell line growth inhibition [RAS]
Conditions: for pIC50: curve of first compound; for viability, T/C: stronger effect = lower value
Excerpt: RAS pathway inhibitors in Combinations in Complex Spheroids
A high-throughput screen of multi-cell type tumor spheroids was designed to identify active combinations of RAS pathway inhibitors and targeted small molecules. Complex spheroids include a stromal component modeled by human endothelial cells (HUVEC) and fibroblasts modeled by human mesenchymal stem cells (MSCs). The concentration ranges selected for each drug and investigational agent were based upon clinically achievable concentrations if the clinical Cmax of the agent was known.
Compounds. The drugs and investigational agents: abemaciclib (NSC768073), cobimetinib (NSC768068), divarasib (GDC6063, NSC841802), docetaxel (NSC628503), GDC-1971 (RLY-1971, NSC841576), gemcitabine (NSC613327), inavolisib (NSC800729), ipatasertib (NSC767898), KB-0742 (NSC834161), MRTX-1133 (NSC836407), osimertinib (NSC779217), RMC-4630 (NSC839698), RMC-6236 (NSC851965), RMC-6291 (NSC852671), Ro-3306 (NSC812927), sapanisertib (NSC764658), SN-38 (NSC673596), staurosporine (NSC755774), SY5609 (NSC837396), and tovorafenib (DAY101, NSC766906), were obtained from the National Cancer Institute (NCI) Developmental Therapeutics Program Chemical Repository. The FDA-approved anticancer drug set is available from the NCI Developmental Therapeutics Program. […] The stock solutions were prepared in dimethyl sulfoxide (DMSO, Sigma-Aldrich, St. Louis, MO, cat. D2650) at 800-fold the tested concentration and stored at -70 degrees C prior to their use. All drugs and investigational agents were tested over a range starting from a high concentration at or near the clinical Cmax and decreasing in half-log increments. If the clinical Cmax for an agent had not been determined, the highest concentration tested was 10 microM.
Cell Culture. All cells were maintained in an incubator at 37 degrees C and 5% CO2 with 95% humidity. The PDC lines were cultured according to standard operating procedures established by the NCI PDMR. All PDCs were thawed and cultured in Matrigel-coated flasks prepared with a working solution of 1X Ham's F-12 nutrient mix, without supplementation (Invitrogen, Waltham, MA, cat. 11765054), 100 U/mL penicillin-streptomycin (Invitrogen, cat. 15140122), and 2.5% Matrigel (Corning Inc., Corning, NY, cat. 354248) for the first three passages. The 362531-283-R-J2-PDC and 782815-120-R-J1-PDC lines were cultured in 6C/Colon 1B media, which includes advanced DMEM/F-12 (Thermo Fisher Scientific, cat. 12634028), 10 mM HEPES (Thermo Fisher Scientific, cat. 15630080), 1X GlutaMAX supplement (Thermo Fisher Scientific, cat. 35050061), 0.1 mg/mL primocin (InvivoGen, San Diego, CA, cat. ant-pm-2), 10% defined fetal bovine serum, heat inactivated (HyClone Laboratories Inc., Logan, UT, cat. SH30070.03HI), 50% L-WRN conditioned media (ATCC, cat. CRL-3276), 1.25 mM N-Acetyl-L-cysteine (Sigma-Aldrich, cat. A9165), 10 mM nicotinamide (Sigma-Aldrich, cat. N0636), 1X B-27 supplement (Thermo Fisher Scientific, cat. 17504044), 1X N-2 supplement (Thermo Fisher Scientific, cat. 17502048), 50 ng/mL human EGF (Thermo Fisher Scientific, cat. PHG0311), and 10 microM Y-27632 dihydrochloride (Tocris Bioscience, cat. 1254). The K12877-001-R-J1-PDC line was cultured in 6I media, which includes all 6C/Colon 1B media plus 10 ng/mL human FGF-10 (PeproTech, cat. 100-26), 1 ng/mL human FGF-2 (PeproTech, cat. 100-18B), 1 µM prostaglandin E2 (Tocris Bioscience, cat. 2296), […] hydrocortisone (Sigma-Aldrich, cat. H4001), and […] bovine insulin (Sigma-Aldrich, cat. I6634). The K86415-001-R-J1-PDC line was cultured in 6D media, which includes all 6C/Colon 1B media components minus the L-WRN conditioned media. The 485176-168-R4-J1-PDC was cultured in PANC media, which includes all 6C/Colon 1B media plus 100 ng/mL human FGF-10 (PeproTech, cat. 100-26), 500 nM SB-431542 (Selleckchem, cat. S1067), and 10 nM gastrin (Tocris Bioscience, cat. 3006). […]
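Also: spheroids exposed to compounds for 7 days.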
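For viability, T/C in this document: 100% = DMSO vehicle control viability.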

pIC50 (second compound 0.000949 µM): > 9.02
pIC50 (second compound 0.003 µM): > 9.02
pIC50 (second compound 0.00949 µM): > 9.02
pIC50 (second compound 0.03 µM): > 9.02
pIC50 (second compound 0.0949 µM): > 9.02
pIC50 (second compound 0.3 µM): > 9.02
Compound: CC1(C)CCC(Nc2ncc(C(F)(F)F)c(-c3c[nH]c4c(P(C)(C)=O)c(C#N)ccc34)n2)CN1 (configuration not stated) + CCn1c(-c2cc(N3CCN(C)CC3)cnc2C(C)OC)c2c3cc(ccc31)-c1csc(n1)CC(NC(=O)C1CC1C)C(=O)N1CCCC(N1)C(=O)OCC(C)(C)C2
viability, T/C (second compound 0.000949 µM, first compound 0.000949 µM): 30.6%
viability, T/C (second compound 0.000949 µM, first compound 0.003 µM): 29.6%
viability, T/C (second compound 0.000949 µM, first compound 0.00949 µM): 32.5%
viability, T/C (second compound 0.000949 µM, first compound 0.03 µM): 31.7%
viability, T/C (second compound 0.000949 µM, first compound 0.0949 µM): 30%
viability, T/C (second compound 0.000949 µM, first compound 0.3 µM): 33.4%
viability, T/C (second compound 0.003 µM, first compound 0.000949 µM): 24.3%
viability, T/C (second compound 0.003 µM, first compound 0.003 µM): 24%
viability, T/C (second compound 0.003 µM, first compound 0.00949 µM): 27.2%
viability, T/C (second compound 0.003 µM, first compound 0.03 µM): 27.5%
viability, T/C (second compound 0.003 µM, first compound 0.0949 µM): 26.9%
viability, T/C (second compound 0.003 µM, first compound 0.3 µM): 31.3%
viability, T/C (second compound 0.00949 µM, first compound 0.000949 µM): 21.2%
viability, T/C (second compound 0.00949 µM, first compound 0.003 µM): 21.1%
viability, T/C (second compound 0.00949 µM, first compound 0.00949 µM): 23.1%
viability, T/C (second compound 0.00949 µM, first compound 0.03 µM): 21.6%
viability, T/C (second compound 0.00949 µM, first compound 0.0949 µM): 25.4%
viability, T/C (second compound 0.00949 µM, first compound 0.3 µM): 24.8%
viability, T/C (second compound 0.03 µM, first compound 0.000949 µM): 22.2%
viability, T/C (second compound 0.03 µM, first compound 0.003 µM): 21.2%
viability, T/C (second compound 0.03 µM, first compound 0.00949 µM): 25.4%
viability, T/C (second compound 0.03 µM, first compound 0.03 µM): 23.5%
viability, T/C (second compound 0.03 µM, first compound 0.0949 µM): 25%
viability, T/C (second compound 0.03 µM, first compound 0.3 µM): 22.8%
viability, T/C (second compound 0.0949 µM, first compound 0.000949 µM): 19.1%
viability, T/C (second compound 0.0949 µM, first compound 0.003 µM): 22.9%
viability, T/C (second compound 0.0949 µM, first compound 0.00949 µM): 24.6%
viability, T/C (second compound 0.0949 µM, first compound 0.03 µM): 20.7%
viability, T/C (second compound 0.0949 µM, first compound 0.0949 µM): 23.1%
viability, T/C (second compound 0.0949 µM, first compound 0.3 µM): 28.9%
viability, T/C (second compound 0.3 µM, first compound 0.000949 µM): 19.7%
viability, T/C (second compound 0.3 µM, first compound 0.003 µM): 22.6%
viability, T/C (second compound 0.3 µM, first compound 0.00949 µM): 26.8%
viability, T/C (second compound 0.3 µM, first compound 0.03 µM): 24.1%
viability, T/C (second compound 0.3 µM, first compound 0.0949 µM): 28.1%
viability, T/C (second compound 0.3 µM, first compound 0.3 µM): 28.1%
